Consider six compounds from patent US9254292B2, “Fused tetracycle derivatives and methods of use thereof for the treatment of viral diseases” (Merck Sharp & Dohme Corp., priority 2010, dated 2016).

One experiment concerns HCV replicon 1a WT. The experiment can be described thus: Cell-based HCV replicon assay, genotype 1a WT. The arrangement: species or system Hepatitis C virus. To be noted: replicon cells, day 3, replicon RNA by real time PCR (Taqman). The protocol:
(§1) To measure cell-based anti-HCV activity of selected compounds of the present invention, replicon cells were seeded at 5000 cells/well in 96-well collagen I-coated Nunc plates in the presence of the test compound. Various concentrations of test compound, typically in 10 serial 2-fold dilutions, were added to the assay mixture, with the starting concentration ranging from 250 μM to 1 μM. The final concentration of DMSO was 0.5%, fetal bovine serum was 5%, in the assay media. Cells were harvested on day 3 by the addition of 1× cell lysis buffer (Ambion cat #8721). The replicon RNA level was measured using real time PCR (Taqman assay). The amplicon was located in 5B. The PCR primers were: 5B.2F, ATGGACAGGCGCCCTGA (SEQ ID NO. 1); 5B.2R, […] (SEQ ID NO. 2); the probe sequence was FAM-labeled CACGCCATGCGCTGCGG (SEQ ID NO. 3). GAPDH RNA was used as endogenous control and was amplified in the same reaction as NS5B (multiplex PCR) using primers and VIC-labeled probe recommended by the manufacturer (PE Applied Biosystem). The real-time RT-PCR reactions were run on ABI PRISM 7900HT Sequence Detection System using the following program: 48° C. for 30 minutes, 95° C. for 10 minutes, 40 cycles of 95° C. for 15 sec, 60° C. for 1 minutes The ΔCT values (CT5B-CTGAPDH) were plotted against the concentration of test compound and fitted to the sigmoid dose-response model using XLfit4 (MDL). EC50 was defined as the concentration of inhibitor necessary to achieve ΔCT=1 over the projected baseline; EC90 the concentration necessary to achieve ΔCT=3.2 over the baseline. Alternatively, to quantitate the absolute amount of replicon RNA, a standard curve was established by including serially diluted T7 transcripts of replicon RNA in the Taqman assay. All Taqman reagents were from PE Applied Biosystems. Such an assay procedure was described in detail in e.g. Malcolm et al., Antimicrobial Agents and Chemotherapy 50: 1013-1020 (2006).
(§2) HCV replicon assay data was calculated for selected compounds of the present invention using this method and is provided in the table below.
For orientation: In antiviral work, replicon cells carry a viral genome segment that copies itself.

The subject of a further experiment is HCV replicon 1b WT. The experiment can be described thus: Cell-based HCV replicon assay, genotype 1b WT. Further details: species or system Hepatitis C virus. The note with it: replicon cells, day 3, replicon RNA by real time PCR (Taqman). The procedure: as §1, §2
In a further experiment the test system is HCV replicon 1a Y93H. In words: Cell-based HCV replicon assay, genotype 1a Y93H mutant. The note with it: Hepatitis C virus, 72 h, read-out: Replicon EC50 1a Y93H. The procedure:
To measure cell-based anti-HCV activity of selected compounds of the present invention, replicon cells were seeded at 5000 cells/well in 96-well collagen I-coated Nunc plates in the presence of the test compound. Various concentrations of test compound, typically in 10 serial 2-fold dilutions, were added to the assay mixture, with the starting concentration ranging from 250 μM to 1 μM. The final concentration of DMSO was 0.5%, fetal bovine serum was 5%, in the assay media. Cells were harvested on day 3 by the addition of 1× cell lysis buffer (Ambion cat #8721). The replicon RNA level was measured using real time PCR (Taqman assay). The amplicon was located in 5B. The PCR primers were: 5B.2F, ATGGACAGGCGCCCTGA (SEQ ID NO. 1); 5B.2R, […] (SEQ ID NO. 2); the probe sequence was FAM-labeled CACGCCATGCGCTGCGG (SEQ ID NO. 3). GAPDH RNA was used as endogenous control and was amplified in the same reaction as NS5B (multiplex PCR) using primers and VIC-labeled probe recommended by the manufacturer (PE Applied Biosystem). […] Alternatively, to quantitate the absolute amount of replicon RNA, a standard curve was established by including serially diluted T7 transcripts of replicon RNA in the Taqman assay. […]
as §2

What is called EC50 is the midpoint of the concentration-response curve. As to `COC(=O)N[C@H](C(=O)N1CCC[C@H]1c1ncc(-c2ccc3c(c2)OCCc2c-3oc3ccc(-c4cnc([C@@H]5CCCN5C(=O)[C@@H](NC(=O)OC)C(C)C)[nH]4)cc23)[nH]1)C(C)C` [Compound 5], the EC50 in the experiment on HCV replicon 1a WT (Hepatitis C virus, 72 h) is 15 pM; in the experiment on HCV replicon 1b WT (Hepatitis C virus, 72 h), 1 pM; with HCV replicon 1a Y93H, 186000 pM.

For the compound `COC(=O)NC(C(=O)N1CCC[C@@H]1c1ncc(-c2ccc3c(c2)c(F)c2n3CCOc3cc(-c4cnc(C5CCCN5C(=O)[C@@H](NC(=O)OC)C(C)C)[nH]4)ccc3-2)[nH]1)C(C)C` (some centres unmarked) [Compound 11], the EC50 in the experiment on HCV replicon 1a WT came to 10 pM; with HCV replicon 1b WT it was 5 pM.

As to `COC(=O)NC(C(=O)N1CCC[C@H]1c1ncc(-c2ccc3c(c2)c(F)c2n3CCOc3cc(-c4cnc(C5CCCN5C(=O)[C@@H](NC(=O)OC)C(C)C)[nH]4)ccc3-2)[nH]1)C(C)C` (some centres unmarked) [Compound 8], the 50% effective concentration (EC50) was 16 pM in the experiment with HCV replicon 1a WT and 7 pM with HCV replicon 1b WT.

Turning to `COC(=O)NC(C(=O)N1CCC[C@H]1c1ncc(-c2ccc3c(c2)c(F)c2n3CCOc3cc(-c4cnc(C5CCCN5C(=O)[C@@H](NC(=O)OC)C(C)C)[nH]4)ccc3-2)[nH]1)C(C)C` (some centres unmarked) [Compound 9], the results for the EC50 with HCV replicon 1a WT and in the experiment on HCV replicon 1b WT were 1180 pM and 270 pM, respectively.

`COC(=O)NC(C(=O)N1CCC[C@H]1c1ncc(-c2ccc3c(c2)cc2n3CCOc3cc(-c4cnc(C5CCCN5C(=O)[C@@H](NC(=O)OC)C(C)C)[nH]4)ccc3-2)[nH]1)C(C)C` (some centres unmarked) [Compound 7]: the EC50 with HCV replicon 1a WT (Hepatitis C virus, 72 h) amounted to 10 pM; in the experiment with HCV replicon 1b WT (Hepatitis C virus, 72 h) it was 3 pM; in the experiment with HCV replicon 1a Y93H it was 565000 pM.

Consider `COC(=O)NC(C(=O)N1CCC[C@@H]1c1ncc(-c2ccc3c(c2)c(F)c2n3CCOc3cc(-c4cnc(C5CCCN5C(=O)[C@@H](NC(=O)OC)C(C)C)[nH]4)ccc3-2)[nH]1)C(C)C` (some centres unmarked) [Compound 10], for which the values for the EC50 in the experiment with HCV replicon 1a WT and in the experiment with HCV replicon 1b WT were 2000 pM and 700 pM, respectively.
